Source: patent US7312358B2, “Pharmaceutically active sulfanilide derivatives” (Laboratoires Serono SA, priority 2000, dated 2007)

Molecular target: T1, hOT-R (Homo sapiens, UniProt P30559)
T1 construct: expressed in transfected cells; host or cells: HEK (Human Embryonic Kidney) cells
T1 sequence (P30559 1-389): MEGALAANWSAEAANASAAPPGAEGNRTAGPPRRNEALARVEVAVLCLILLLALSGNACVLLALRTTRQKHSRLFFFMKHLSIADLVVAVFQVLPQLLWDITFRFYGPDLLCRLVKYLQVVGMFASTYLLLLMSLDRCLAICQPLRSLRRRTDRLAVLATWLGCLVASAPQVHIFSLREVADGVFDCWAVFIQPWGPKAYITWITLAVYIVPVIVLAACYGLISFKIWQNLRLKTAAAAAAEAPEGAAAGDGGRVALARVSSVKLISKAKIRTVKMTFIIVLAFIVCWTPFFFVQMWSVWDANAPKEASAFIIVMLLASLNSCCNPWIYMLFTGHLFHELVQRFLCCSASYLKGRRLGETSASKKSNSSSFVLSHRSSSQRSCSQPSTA
Experiment: Inhibition of oxytocin mediated Ca2+-mobilization by FLIPR (HEK cells)
Format: cell-based
Conditions: fluo-4, OT 40 nM
Outline: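 HEK cells loaded with fluo-4 for 1.5–2 h; antagonist added at 10 pM–30 μM in HEPES-buffered saline, pH 7.4, then stimulated with 40 nM oxytocin. Intracellular Ca2+ mobilization read as fluorescence on FLIPR.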

CCOc1ccc(S(=O)(=O)N(CC(=O)N/N=C2/C(=O)Nc3ccccc32)c2ccc(C)cc2)cc1 [Example 5, 4-ethoxy-N-(4-methylphenyl)-N-{2-oxo-2-[2-(2-oxo-1,2-dihydro-3H-indol-3-ylidene)hydrazino]ethyl}benzenesulfonamide]
IC50: 55 nM
